Laboratory results reported in patent US20110086834A1, “ALKYNYL ALCOHOLS AS KINASE INHIBITORS” (AMGEN INC., priority 2008, published 2011).

Biological target: T1, NIK (Homo sapiens, UniProt Q99558)
T1 construct: Both assays utilize a truncated form of NIK containing only the catalytic domain; made in house; host or cells: baculovirus expression system (insect cells implied)
Assay: homogenous time resolved fluorescence (HTRF) assay for NIK Ki measurement
Type: biochemical
Details: truncated NIK (catalytic domain only), autophosphorylation; 10 nM enzyme; 20, 100, 200 or 500 μM ATP; room temperature, 2 hours; read-out: Ki activity in the homogenous time resolved fluorescence (HTRF) assay for NIK
Protocol: Two formats of biochemical assays are implemented: (1) chemiluminescent (CL) assay for NIK IC50 determination; (2) homogenous time resolved fluorescence (HTRF) assay for NIK Ki measurement. […] The NIK proteins are purified with baculovirus expression system and further biotinylated with N-hydroxysuccinamide biotin ester (Sigma). […] The reaction mixtures are then immobilized on a Streptavidin-coated plate (Pierce). […] For the HTRF assay, 10 nM of enzyme are incubated with compounds in the presence of 20, 100, 200, or 500 μM of ATP in a buffer with 20 mM of Hepes pH7.5, 20 mM of MgCl2, 0.2% of Tween 20 and 1 mM of DTT at room temperature for 2 hours.

T1 sequence (Q99558 400-655 limits assumed): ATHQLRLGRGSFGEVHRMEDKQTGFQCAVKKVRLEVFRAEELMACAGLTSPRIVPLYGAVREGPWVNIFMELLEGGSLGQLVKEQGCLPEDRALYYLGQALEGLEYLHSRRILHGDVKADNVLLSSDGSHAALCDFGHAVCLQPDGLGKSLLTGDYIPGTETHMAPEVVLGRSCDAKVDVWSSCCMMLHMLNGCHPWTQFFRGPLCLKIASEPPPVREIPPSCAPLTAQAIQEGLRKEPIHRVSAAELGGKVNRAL

| SMILES | Ki [µM] |
| --- | --- |
| CC(O)(C#Cc1ccc2c(c1)N(c1ncns1)CC2(C)C)c1nccs1 (centres unmarked) [Example 12, 4-(3,3-dimethyl-1-(1,2,4-thiadiazol-5-yl)indolin-6-yl)-2-(thiazol-2-yl)but-3-yn-2-ol] | < 1 |
| CC(O)(C#Cc1ccc2c(c1)N(c1ncns1)CC2(C)C)c1cnccn1 (centres unmarked) [Example 13, 4-(3,3-dimethyl-1-(1,2,4-thiadiazol-5-yl)indolin-6-yl)-2-(pyrazin-2-yl)but-3-yn-2-ol] | < 1 |
| Cc1cc([C@](C)(O)C#Cc2ccc3c(c2)N(c2ncns2)CC3(C)C)no1 [Example 14, (R)-4-(3,3-dimethyl-1-(1,2,4-thiadiazol-5-yl)indolin-6-yl)-2-(5-methylisoxazol-3-yl)but-3-yn-2-ol] | < 1 |
| Cc1cc([C@@](C)(O)C#Cc2ccc3c(c2)N(c2ncns2)CC3(C)C)no1 [Example 15, (S)-4-(3,3-dimethyl-1-(1,2,4-thiadiazol-5-yl)indolin-6-yl)-2-(5-methylisoxazol-3-yl)but-3-yn-2-ol] | < 1 |
| Nc1ncc(Cl)c(N2CCc3ccc(C#CC4(O)CCCC4)cc32)n1 [Example 16, 1-(2-(1-(2-amino-5-chloropyrimidin-4-yl)indolin-6-yl)ethynyl)cyclopentanol] | < 1 |
| COCCOc1ccc(Nc2ncnc(N3CC(C)(C)c4ccc(C#CC5(O)CCCC5)cc43)n2)cc1 [Example 17, 1-(2-(1-(4-(4-(2-methoxyethoxy)phenylamino)-1,3,5-triazin-2-yl)-3,3-dimethylindolin-6-yl)ethynyl)cyclopentanol] | 1 to 30 |
| COc1cc(C#CC2(O)CCCC2)cc2c1CCN2c1nc(N)ncc1F [Example 18, 1-(2-(1-(2-amino-5-fluoropyrimidin-4-yl)-4-methoxyindolin-6-yl)ethynyl)cyclopentanol] | < 1 |
| CC(=O)Nc1cc(C#CC2(O)CCCC2)cc2c1CCN2c1nc(N)ncc1Cl [Example 19, N-(1-(2-amino-5-chloropyrimidin-4-yl)-6-(2-(1-hydroxycyclopentyl)ethynyl)indolin-4-yl)acetamide] | < 1 |
| Cc1cc(C(C)(O)C#Cc2ccc3c(c2)N(c2ccnc(N)n2)CC3)no1 (centres unmarked) [Example 20, 4-(1-(2-aminopyrimidin-4-yl)indolin-6-yl)-2-(5-methylisoxazol-3-yl)but-3-yn-2-ol] | < 1 |
| CC(O)(C#Cc1ccc2c(c1)N(c1ccnc(N)n1)CC2)C1CCC1 (centres unmarked) [Example 21, 4-(1-(2-aminopyrimidin-4-yl)indolin-6-yl)-2-cyclobutylbut-3-yn-2-ol] | < 1 |
| CCc1csc(C(C)(O)C#Cc2ccc3c(c2)N(c2nc(N)ncc2Cl)CC3)c1 (centres unmarked) [Example 22, 4-(1-(2-amino-5-chloropyrimidin-4-yl)indolin-6-yl)-2-(4-ethylthiophen-2-yl)but-3-yn-2-ol] | < 1 |
| Cn1ccc(C(C)(O)C#Cc2ccc3c(c2)N(c2nc(N)ncc2Cl)CC3)n1 (centres unmarked) [Example 26, 4-(1-(2-amino-5-chloropyrimidin-4-yl)indolin-6-yl)-2-(1-methyl-1H-pyrazol-3-yl)but-3-yn-2-ol] | < 1 |
| C[C@@](O)(C#Cc1ccc2c(c1)N(c1ncncc1Cl)CC21CCOCC1)c1nccs1 [Example 32, (2R)-4-[1-(5-chloropyrimidin-4-yl)-1,2,2′,3′,5′,6′-hexahydrospiro[indole-3,4′-pyran]-6-yl]-2-(1,3-thiazol-2-yl)but-3-yn-2-ol] | < 1 |
| C[C@@](O)(C#Cc1ccc2c(c1)N(c1ccncn1)CC21CCOCC1)c1nccs1 [Example 33, (2R)-4-(1-pyrimidin-4-yl-1,2,2′,3′,5′,6′-hexahydrospiro[indole-3,4′-pyran]-6-yl)-2-(1,3-thiazol-2-yl)but-3-yn-2-ol] | < 1 |
| CC(O)(C#Cc1ccc2c(c1)N(c1nc(N)ncc1Cl)CC2)c1ncc(C#N)s1 (centres unmarked) [Example 34, 2-(4-(1-(2-amino-5-chloropyrimidin-4-yl)indolin-6-yl)-2-hydroxybut-3-yn-2-yl)thiazole-5-carbonitrile] | < 1 |
| CC(O)(C#Cc1ccc2c(c1)N(c1nc(N)ncc1Cl)CC2)c1nc(CO)cs1 (centres unmarked) [Example 35, 4-(1-(2-amino-5-chloropyrimidin-4-yl)indolin-6-yl)-2-(4-(hydroxymethyl)thiazol-2-yl)but-3-yn-2-ol] | 1 to 30 |
| CN1CCOC2(C1)CN(c1nc(N)ncc1Cl)c1cc(C#C[C@@](C)(O)c3nccs3)ccc12 (stereo partly drawn) [Example 36, (2R)-4-[1-(2-amino-5-chloropyrimidin-4-yl)-4′-methyl-1,2-dihydrospiro[indole-3,2′-[1,4]oxazinan]-6-yl]-2-(1,3-thiazol-2-yl)but-3-yn-2-ol] | < 1 |
| CC(O)(C#Cc1ccc2c(c1)N(c1ncncn1)CC21CCOCC1)c1nccs1 (centres unmarked) [Example 37, 2-(1,3-thiazol-2-yl)-4-(1-(1,3,5-triazin-2-yl)-1,2,2′,3′,5′,6′-hexahydrospiro[indole-3,4′-pyran]-6-yl)-3-butyn-2-ol] | < 1 |
| CC(O)(C#Cc1ccc2c(c1)N(c1ncncn1)CC2(C)C)c1nccs1 (centres unmarked) [Example 38, 4-(3,3-dimethyl-1-(1,3,5-triazin-2-yl)-2,3-dihydro-1H-indol-6-yl)-2-(1,3-thiazol-2-yl)-3-butyn-2-ol] | < 1 |
| CN1CC[C@](O)(C#Cc2ccc3c(c2)N(c2nc(N)ncc2Cl)CC3(C)C)C1=O [Example 44, (3S)-3-((1-(2-amino-5-chloro-4-pyrimidinyl)-3,3-dimethyl-2,3-dihydro-1H-indol-6-yl)ethynyl)-3-hydroxy-1-methyl-2-pyrrolidinone] | < 1 |
| Cn1cnc(C(C)(O)C#Cc2ccc3c(c2)N(c2nc(N)ncc2Cl)CC3(C)C)c1 (centres unmarked) [Example 45, 4-(1-(2-amino-5-chloro-4-pyrimidinyl)-3,3-dimethyl-2,3-dihydro-1H-indol-6-yl)-2-(1-methyl-1H-imidazol-4-yl)-3-butyn-2-ol] | < 1 |
| Cn1cnc(C(O)C#Cc2ccc3c(c2)N(c2nc(N)ncc2Cl)CC3(C)C)c1 (centres unmarked) [Example 46, 3-(1-(2-amino-5-chloro-4-pyrimidinyl)-3,3-dimethyl-2,3-dihydro-1H-indol-6-yl)-1-(1-methyl-1H-imidazol-4-yl)-2-propyn-1-ol] | < 1 |
| COC(=O)C(C)(O)C#Cc1ccc2c(c1)N(c1nc(N)ncc1Cl)CC2(C)C (centres unmarked) [Example 48, methyl 4-(1-(2-amino-5-chloro-4-pyrimidinyl)-3,3-dimethyl-2,3-dihydro-1H-indol-6-yl)-2-hydroxy-2-methyl-3-butynoate] | < 1 |
| CNC(=O)C(C)(O)C#Cc1ccc2c(c1)N(c1nc(N)ncc1Cl)CC2(C)C (centres unmarked) [Example 49, 4-(1-(2-amino-5-chloro-4-pyrimidinyl)-3,3-dimethyl-2,3-dihydro-1H-indol-6-yl)-2-hydroxy-N,2-dimethyl-3-butynamide] | < 1 |
| CC(O)(C#Cc1ccc2c(c1)N(c1nc(N)ncc1Cl)CC2(C)C)C(=O)N1CCCC1 (centres unmarked) [Example 50, 4-(1-(2-amino-5-chloro-4-pyrimidinyl)-3,3-dimethyl-2,3-dihydro-1H-indol-6-yl)-2-methyl-1-oxo-1-(1-pyrrolidinyl)-3-butyn-2-ol] | < 1 |
| CC1(CO)CN(c2nc(N)ncc2Cl)c2cc(C#CC3(O)CCCC3)ccc21 (centres unmarked) [Example 54, 1-((1-(2-amino-5-chloro-4-pyrimidinyl)-3-(hydroxymethyl)-3-methyl-2,3-dihydro-1H-indol-6-yl)ethynyl)cyclopentanol] | < 1 |
